The values below come from patent US20250066358A1, “Inhibitors of Menin-MLL Interaction” (Bala Therapeutics, Inc., priority 2021, published 2025).

Series [1] addresses T1, recombinant MEN1 protein and fluorescein-labeled MLL4-43 peptide (Homo sapiens, UniProt O00255).
T1 construct: purchased Creativebiomart MEN1-35H
T1 sequence (O00255 1-610): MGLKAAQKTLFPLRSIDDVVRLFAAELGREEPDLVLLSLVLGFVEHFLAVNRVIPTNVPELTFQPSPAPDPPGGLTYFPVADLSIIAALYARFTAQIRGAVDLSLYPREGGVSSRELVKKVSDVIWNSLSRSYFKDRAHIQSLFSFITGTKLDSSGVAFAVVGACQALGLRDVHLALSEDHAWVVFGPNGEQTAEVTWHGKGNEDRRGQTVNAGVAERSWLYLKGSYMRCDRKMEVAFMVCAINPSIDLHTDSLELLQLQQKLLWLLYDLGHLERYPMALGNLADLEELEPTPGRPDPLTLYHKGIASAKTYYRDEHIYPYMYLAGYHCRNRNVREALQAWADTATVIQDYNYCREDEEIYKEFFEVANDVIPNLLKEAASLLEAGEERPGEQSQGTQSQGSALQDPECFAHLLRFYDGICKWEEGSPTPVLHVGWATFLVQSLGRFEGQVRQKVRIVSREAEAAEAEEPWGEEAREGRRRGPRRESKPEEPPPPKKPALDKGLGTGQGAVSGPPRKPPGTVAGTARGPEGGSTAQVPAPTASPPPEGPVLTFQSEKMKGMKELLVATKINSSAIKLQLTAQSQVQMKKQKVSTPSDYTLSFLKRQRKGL
In words: Primary fluorescence polarization assay of MEN1 / MLL4-43 interaction inhibition. Conditions: MEN1 10 nM, MLL4-43 0.5 nM, 1 hour at room temperature. The format is binding. As for the experimental part:
Compound activity was determined using recombinant MEN1 protein (Creativebiomart, Cat #MEN1-35H) and a custom fluorescein-labeled MLL4-43 peptide (Eton Bioscience Inc.). Interaction between MEN1 and MLL4-43 in the presence of compounds was determined by fluorescence polarization assay using a Microplate Reader ClarioStar Plus. The reaction was carried out in assay buffer (50 mM TRIS-HCl PH 7.4-7.6, 50 mM NaCl, 1 mM DTT, 0.1 mg/ml BSA). The compounds were dispensed on a 384 well Diamond Well Plate (Axigen, Cat #P-384-120 SQ-C—S) using the Biomek FX liquid handling system at 100× solutions of compounds in DMSO. 2× MEN1 mix (final concentration of MEN1 10 nM) was prepared in Assay buffer and 10 μl of mixture per well was added into 384w white Reaction plate with NBS(Corning, Cat #4513). 10 μl of Assay buffer w/o MENI was used for negative control. Plates were centrifuged for 1 min at 100 g. Next step the Compounds were added to Reaction plate using Biomek station via following steps: 3 μl of 100× compounds (in DMSO) were mixed thoroughly with 27 μl Assay Buffer, then 2 μl of this mixture was added to Reaction plate with 10 μl of MENI mix. Plates were centrifuged for 1 min at 100 g and incubated for 20 min at room temperature. Next 8 μL of MLL4-43 peptide per well was added to final concentration of MLL 0.5 nM. Plates were incubated for 1 hour at room temperature. Then fluorescence polarization was measured using Microplate Reader.

Series [2] in a line: HEK293 Cellular Growth Inhibition Assay (CellTiter-Glo). It is filed as cell-based. Conditions: human, HEK293 cells, 7 days of incubation. The method, then:
(§1) HEK293 (Institute of Cytology Russian Academy of Science), MV4-11 (ATCC, CRL-9591), MOLM-13 (AcceGen, ABC-TC517S) were seeded at a density of 500 cells per well (HEK293) and 2000 cells per well (MV4-11, MOLM-13) in a 384-well clear bottom plate (Greiner Cat #781090) in 45 μl total volume of DMEM (PanEco, Cat #C420, Russia) or RPMI (PanEco, Cat #C330, Russia) with 10% FBS(HyClone Cat #SV30160.03). HEK293 were allowed to adhere overnight at 37° C., 5% CO2. 500× compounds solutions in DMSO (Sigma Cat #D2650) were prepared into Cmpnds plate (Diamond Well Plate, Axigen, Cat #P-384-120 SQ-C—S) and DMSO only control was included. 1 μl of 500× compounds (Cmpnds plate) was added to 49 μl of culture medium into Dilution plate (Diamond Well Plate, Axigen, Cat #P-384-120 SQ-C—S), mixed and then 5 μl of 10× compounds solutions were transferred to cells followed by centrifugation at 100 g for 1 min. Final DMSO concentration was 0.2%. After 3 days of incubation, 10 μl of 1× compounds were added to cells. After 7 days of incubation, 12 μl of CellTiter-Glo (Promega, CAT #G7572) were added to the cells, plate was centrifuged at 100 g for 1 min and luminescence signal was measured using Microplate Reader (CLARIOStar).
In general terms: ATP-based viability assays read luminescence as a measure of living cells.

Series [3] has as its system MV4-11. Kind of series: MV4-11 Cellular Growth Inhibition Assay (CellTiter-Glo). The format is cell-based. As to conditions: Homo sapiens, 168 h, MV4-11 cells, 7 days of incubation. The method, then: as §1
Series [4] has as its system MOLM-13. In words: MOLM-13 Cellular Growth Inhibition Assay (CellTiter-Glo). Conditions: Homo sapiens, 168 h, MOLM-13 cells, 7 days of incubation. It is filed as cell-based. As for the experimental part: as §1

pEC50: −log10 of the molar value.

As usually defined, the pEC50 is the negative decadic logarithm of the EC50, by convention in mol/L. Regarding `CCS(=O)(=O)N1CCc2cc(CN3CCC4(CC3)CN(c3ncnc5ccc(CC(F)(F)F)cc35)C4)ccc2C1` [Compound 110, 4-(7-((2-(ethylsulfonyl)-1,2,3,4-tetrahydroisoquinolin-6-yl)methyl)-2,7-diazaspiro[3.5]nonan-2-yl)-6-(2,2,2-trifluoroethyl)quinazoline], the pEC50 in series [1] was 6.30 to 7.12.

By CC50 is commonly meant the concentration at which the toxic effect on the cells reaches its halfway point. A high value points to lower toxicity to the cells. As for `FC(F)(F)Cc1ccc2ncnc(N3CC4(CCN(Cc5ccc6[nH]ccc6c5)CC4)C3)c2c1` [Compound 90, 4-(7-((1H-indol-5-yl)methyl)-2,7-diazaspiro[3.5]nonan-2-yl)-6-(2,2,2-trifluoroethyl)quinazoline], the pEC50 in series [1] was 6.00 to 6.30. In series [2], this compound registered a CC50 at 7 days of 5 to 15 µM. Also, the CC50 was in the range of 2.5 to 5 µM in series [3] and 5 to 10 µM in series [4].

Consider `CCS(=O)(=O)Nc1ccc(CN2CCC3(CC2)CN(c2ncnc4cc(CC(F)(F)F)ccc24)C3)cc1` [Compound 8, N-(4-((2-(7-(2,2,2-trifluoroethyl)quinazolin-4-yl)-2,7-diazaspiro[3.5]nonan-7-yl)methyl)phenyl)ethanesulfonamide], for which the pEC50 in series [1] is < 5.30. For the same compound, in series [2], the CC50 at 7 days lay in the range of 15 to 30 µM. The CC50 in series [3] is 5 to 10 µM; in series [4] it was 10 to 20 µM.

As for `CCS(=O)(=O)N[C@H]1CC[C@H](CN2CCC3(CC2)CN(c2ncnc4ccc(CC(F)(F)F)cc24)C3)CC1` [Compound 5, N-((1R,4R)-4-((2-(6-(2,2,2-trifluoroethyl)quinazolin-4-yl)-2,7-diazaspiro[3.5]nonan-7-yl)methyl)cyclohexyl)ethanesulfonamide], the pEC50 in series [1] was ≥ 7.12. Besides, in series [2], the cytotoxic concentration (CC50) at 7 days lay within 5 to 15 µM. The CC50 in series [3] is ≤ 1 µM; in series [4] it was 1 to 5 µM.

Regarding `c1ccc(CCc2ccc3ncnc(N4CC5(CCNCC5)C4)c3c2)cc1` [Compound P148, 4-(2,7-Diazaspiro[3.5]non-2-yl)-6-(2-phenylethyl)quinazoline], in series [1], the pEC50 was < 5.30.

As to `CCS(=O)(=O)Nc1ccc(CN2CCC3(CC2)CN(c2ncnc4ccc(CCc5ccccc5)cc24)C3)cc1` [Compound 52, N-(4-((2-(6-phenethylquinazolin-4-yl)-2,7-diazaspiro[3.5]nonan-7-yl)methyl)phenyl)ethanesulfonamide], the pEC50 in series [1] is 6.00 to 6.30. This compound displayed a CC50 at 7 days in series [2] of 5 to 15 µM. In addition, the CC50 in series [3] was 1 to 2.5 µM; in series [4] it was 1 to 5 µM.

As for `CCN(C[C@H]1CC[C@H](NS(=O)(=O)CC)CC1)c1ccc(CN2CCC3(CC2)CN(c2ncnc4ccc(CC(F)(F)F)cc24)C3)cc1` [Compound 100, N-((1R,4R)-4-((ethyl(4-((2-(6-(2,2,2-trifluoroethyl)quinazolin-4-yl)-2,7-diazaspiro[3.5]nonan-7-yl)methyl)phenyl)amino)methyl)cyclohexyl)ethanesulfonamide], the pEC50 in series [1] is 5.30 to 6.00.

With `CCS(=O)(=O)N1CCc2ccc(CN3CCC4(CC3)CN(c3ncnc5ccc(CC(F)(F)F)cc35)C4)cc2C1` [Compound 111, 4-(7-((2-(ethylsulfonyl)-1,2,3,4-tetrahydroisoquinolin-7-yl)methyl)-2,7-diazaspiro[3.5]nonan-2-y1)-6-(2,2,2-trifluoroethyl)quinazoline], the pEC50 in series [1] is 5.30 to 6.00.

For `CCS(=O)(=O)NC1CCc2cc(CN3CCC4(CC3)CN(c3ncnc5ccc(CC(F)(F)F)cc35)C4)cc(F)c2C1` (racemic) [Compound 77, rac-(R)-N-(8-fluoro-6-((2-(6-(2,2,2-trifluoroethyl)quinazolin-4-yl)-2,7-diazaspiro[3.5]nonan-7-yl)methyl)-1,2,3,4-tetrahydronaphthalen-2-yl)ethanesulfonamide], in series [1], the pEC50 was 5.30 to 6.00.

Consider `CCS(=O)(=O)Nc1ccc(CN2CCC3(CC2)CN(c2ncnc4ncccc24)C3)cc1` [Compound 24, N-[4-[(2-pyrido[2,3-d]pyrimidin-4-yl-2,7-diazaspiro[3.5]nonan-7-yl)methyl]phenyl]ethanesulfonamide], for which the pEC50 in series [1] was < 5.30.

Consider `CCS(=O)(=O)Nc1ccc(CN2CCC3(CC2)CN(c2ncnc4ccc(CC(F)(F)F)cc24)C3)cc1C(=O)NCCN1CCOCC1` [Compound 92, 2-(ethylsulfonamido)-N-(2-morpholinoethyl)-5-((2-(6-(2,2,2-trifluoroethyl)quinazolin-4-yl)-2,7-diazaspiro[3.5]nonan-7-yl)methyl)benzamide], for which the pEC50 in series [1] was < 5.30.

`CCS(=O)(=O)N[C@H]1CC[C@H](CN2CCC3(CC2)CCN(c2ncnc4cc(CC(F)(F)F)ccc24)CC3)CC1` [Compound 4, N-((1R,4R)-4-((9-(7-(2,2,2-trifluoroethyl)quinazolin-4-yl)-3,9-diazaspiro[5.5]undecan-3-yl)methyl)cyclohexyl)ethanesulfonamide]: the pEC50 in series [1] was 5.30 to 6.00.

`N#Cc1cc(CN2CCC3(CC2)CN(c2ncnc4ccc(CC(F)(F)F)cc24)C3)ccc1F` [Compound 102, 2-fluoro-5-((2-(6-(2,2,2-trifluoroethyl)quinazolin-4-yl)-2,7-diazaspiro[3.5]nonan-7-yl)methyl)benzonitrile]: the negative-log EC50 (pEC50) in series [1] is 5.30 to 6.00.

`CCS(=O)(=O)Nc1ccc(CN2CCC(Nc3ncnc4cc(CC(F)(F)F)ccc34)CC2)cc1` [Compound 33, N-(4-((4-((7-(2,2,2-trifluoroethyl)quinazolin-4-yl)amino)piperidin-1-yl)methyl)phenyl)ethanesulfonamide]: the negative logarithm of the EC50 (pEC50) in series [1] was < 5.30.

As to `CCS(=O)(=O)Nc1cccc(CN2CCC3(CC2)CN(c2ncnc4ccccc24)C3)c1` [Compound 23, N-(3-((2-(quinazolin-4-yl)-2,7-diazaspiro[3.5]nonan-7-yl)methyl)phenyl)ethanesulfonamide], the pEC50 in series [1] is < 5.30.

Take `CCS(=O)(=O)N[C@H]1CC[C@H](CN2CCC3(CC2)CN(c2ncnc4ccc(CCc5nc(C)no5)cc24)C3)CC1` [Compound 63, N-((1R,4R)-4-((2-(6-(2-(3-methyl-1,2,4-oxadiazol-5-yl)ethyl)quinazolin-4-yl)-2,7-diazaspiro[3.5]nonan-7-yl)methyl)cyclohexyl)ethanesulfonamide]: the pEC50 in series [1] was 5.30 to 6.00.

With `CCS(=O)(=O)Nc1ccc(CN2CCC3(CC2)CN(c2nc(NC)nc4ncccc24)C3)cc1` [Compound 31], the pEC50 in series [1] was < 5.30.

As to `CCS(=O)(=O)Nc1ccc(CN2CCC3(CC2)CN(c2ncnc4ccccc24)C3)cc1` [Compound 21, N-(4-((2-(quinazolin-4-yl)-2,7-diazaspiro[3.5]nonan-7-yl)methyl)phenyl)ethanesulfonamide], in series [1], the pEC50 is < 5.30.

In the case of `CCS(=O)(=O)Nc1ccc(CN2CCC3(CC2)CCN(c2ncnc4cc(CC(F)(F)F)ccc24)CC3)cc1` [Compound 2], in series [1], the pEC50 was < 5.30. This compound registered a CC50 at 7 days in series [2] of 15 to 30 µM. Besides, the half-maximal cytotoxic concentration (CC50) in series [3] is > 10 µM.
